Measured values from patent US20090076152A1, “Novel Compounds Active as Muscarinic Receptor Antagonists” (priority 2007, published 2009).

Target: T1, human muscarinic M3 receptor (Homo sapiens, UniProt P20309)
T1 construct: expressed in transfected cells
Assay: hM3 β-Lac potency assay (NFAT-Betalactamase reporter in CHO-K1 cells)
Conditions: CHO cells recombinantly expressing human M3, NFAT β-lactamase reporter; inhibition of 80 nM carbamyl choline signal, 4 h; IC50 converted to Ki by Cheng-Prusoff; read-out: Cell based β-lactamase M3 Ki
Procedure: M3 potency was determined in CHO-K1 cells transfected with the NFAT-Betalactamase gene. CHO (Chinese Hamster Ovary) cells recombinantly expressing the human muscarinic M3 receptor were transfected with the NFAT_β-Lac_Zeo plasmid. Cells were grown in DMEM with Glutamax-1, supplemented with 25 mM HEPES(Life Technologies 32430-027), containing 10% FCS (Foetal Calf Serum; Sigma F-7524), […] Sodium pyruvate (Sigma S-8636), NEM (non-Essential Amino Acids; Invitrogen 11140-035) and 200 μg/ml Zeocin (Invitrogen R250-01).
Cells were harvested for assay when they reached 80-90% confluency using enzyme free cell Dissociation Solution (Life technologies 13151-014) incubated with the cells for 5 min at 37° C. in an atmosphere containing 5% CO2. Detached cells were collected in warmed growth media and centrifuged at 2000 rpm for 10 min, washed in PBS (Phosphate Buffered Saline; Life Technologies 14190-094) and centrifuged again as just described. The cells were re-suspended at 2×10^5 cells/ml in growth medium (composition as described above). 20 μl of this cell suspension was added to each well of a 384 well black clear bottomed plate (Greiner Bio One 781091-PFI). The assay buffer used was PBS supplemented with 0.05% Pluronic F-127 (Sigma 9003-11-6) and 2.5% DMSO. Muscarinic M3 receptor signalling was stimulated using 80 nM carbamyl choline (Aldrich N240-9) incubated with the cells for 4 h at 37° C./5% CO2 and monitored at the end of the incubation period using a Tecan SpectraFluor+ plate reader (λ—excitation 405 nm, emission 450 nm and 503 nm). M3 receptor antagonists under test were added to the assay at the beginning of the 4 h incubation period and compound activity measured as the concentration dependent inhibition of the carbamyl choline induced signal. Inhibition curves were plotted and IC50 values generated using a 4-parameter sigmoid fit and converted to Ki values using the Cheng-Prusoff correction and the KD value for carbamyl choline in the assay.

T1 sequence (P20309 whole entry): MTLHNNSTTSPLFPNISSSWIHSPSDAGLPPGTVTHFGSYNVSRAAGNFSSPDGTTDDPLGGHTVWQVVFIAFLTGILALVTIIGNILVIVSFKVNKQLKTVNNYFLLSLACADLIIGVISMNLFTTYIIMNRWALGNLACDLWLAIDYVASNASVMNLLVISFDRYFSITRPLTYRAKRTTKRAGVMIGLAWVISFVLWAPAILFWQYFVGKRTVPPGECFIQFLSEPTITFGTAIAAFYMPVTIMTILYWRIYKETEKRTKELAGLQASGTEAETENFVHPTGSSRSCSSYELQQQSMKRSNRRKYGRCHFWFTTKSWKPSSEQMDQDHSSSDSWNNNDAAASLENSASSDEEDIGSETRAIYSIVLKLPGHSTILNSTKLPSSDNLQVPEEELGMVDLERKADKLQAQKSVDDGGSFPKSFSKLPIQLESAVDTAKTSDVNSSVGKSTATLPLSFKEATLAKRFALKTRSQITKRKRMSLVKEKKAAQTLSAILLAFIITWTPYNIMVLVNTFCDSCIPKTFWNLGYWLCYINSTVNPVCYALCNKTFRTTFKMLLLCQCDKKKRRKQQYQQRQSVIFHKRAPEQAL

- Ki: > 6.66 nM
Structure (SMILES): CC(C)N(CC[C@H](c1ccccc1)c1cc(CCOc2ccc(CCNCc3ccc(F)c(O)c3)cc2)ccc1O)C(C)C [Example 23, 2-[(1R)-3-(diisopropylamino)-1-phenylpropyl]-4-[2-(4-{2-[(4-fluoro-3-hydroxybenzyl)amino]ethyl}phenoxy)ethyl]phenol]
